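Grown in 96-well plates, cells were treated for 48 hours with each compound at five concentrations. Insufficient inhibition: endpoint recorded as highest concentration tested. At the TGI there is no net growth.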 Where a SMILES comes first, the peptide text is derived from it. [ ]: non-standard residue; d: D form. The star is where a group is joined. ξ: configuration not given here. X37 = O=C(OCc1ccccc1)[C@@H]1CCC[C@H]1N*; Fmoc = O=C(OCC1c2ccccc2-c2ccccc21)*; ξW = NC(Cc1c[nH]c2ccccc12)C(=O)O; ξF = NC(Cc1ccccc1)C(=O)O; Boc = CC(C)(C)OC(=O)*; ξK = NCCCCC(N)C(=O)O; ξT = CC(O)C(N)C(=O)O; tBu = CC(C)(C)*
Assays:
Assay in all cases: NCI-60 cell line screen, 48 h
HCT-15 colon = system: HCT-15 colon
CCRF-CEM leukemia = system: CCRF-CEM leukemia
EKVX NSCLC = system: EKVX NSCLC
UO-31 renal = system: UO-31 renal
U251 CNS = system: U251 CNS
SK-MEL-5 melanoma = system: SK-MEL-5 melanoma
MDA-N = system: MDA-N
HT29 colon = system: HT29 colon
M14 melanoma = system: M14 melanoma
NCI-H226 lung = system: NCI-H226 lung
OVCAR-5 ovarian = system: OVCAR-5 ovarian

SMILES | TGI (HCT-15 colon) [µM] | TGI (CCRF-CEM leukemia) [µM] | TGI (EKVX NSCLC) [µM] | TGI (UO-31 renal) [µM] | TGI (U251 CNS) [µM] | TGI (SK-MEL-5 melanoma) [µM] | TGI (MDA-N) [µM] | TGI (HT29 colon) [µM] | TGI (M14 melanoma) [µM] | TGI (NCI-H226 lung) [µM] | TGI (OVCAR-5 ovarian) [µM]
S=C1c2cc(Cl)ccc2NC(=NC2CCCC2)C2CSCN12 (centres undefined) | > 100 | > 100 | > 100 | > 100 | > 100 | > 100 | > 100 | > 100 | > 100 | > 100 | > 100
CCOC(=O)c1cc(-c2ccc(OC)c(OC)c2)cn1C | > 10 | > 10 | > 10 | > 10 | > 10 | > 10 | > 10 | > 10 | > 10 | > 10 | > 10
COc1ccc2c(c1)CC[C@@H]1C2CC[C@]2(C)OC(=O)CCC12 (some centres undefined) | > 100 | > 100 | 21.3 | 48.5 | 21 | 29.5 | 62.1 | 59.2 | 36 | 36.7 | 30.9
CCOC(=O)/C(O)=C(\C=N\C(=S)Nc1ccc(Cl)c(Cl)c1)C(=O)OCC | > 100 | > 100 | > 100 | > 100 | > 100 | > 100 | > 100 | > 100 | > 100 | > 100 | > 100
CC(OC(C)(C)C)C(NC(=O)C(CCCCNC(=O)OC(C)(C)C)NC(=O)C(Cc1c[nH]c2ccccc12)NC(=O)C(Cc1ccccc1)NC(=O)OCC1c2ccccc2-c2ccccc21)C(=O)NC(Cc1ccccc1)C(=O)N[C@@H]1CCC[C@H]1C(=O)OCc1ccccc1 (some centres undefined) (Fmoc-[ξF][ξW][ξK](Boc)[ξT](tBu)[ξF]-X37) | > 100 | > 100 | > 100 | > 100 | > 100 | > 100 | > 100 | > 100 | > 100 | > 100 | > 100
c1ccc(COc2nc3ccc(C45CC6CC(CC(C6)C4)C5)cc3[nH]2)cc1 | > 29.5 | > 100 | > 100 | > 64.7 | > 78.5 | 14.6 | 97 | > 100 | 98.4 | 46.2 | > 100
CC(=O)NC1C(OCC(=O)NC(C)C(=O)NC(CCC(=O)NCCCCCNc2ccc([N+](=O)[O-])c3[nH]c4ccccc4c(=O)c23)C(N)=O)C(O)C(CO)OC1(C)OCc1ccccc1 (centres undefined) | > 50 | > 50 | > 50 | > 50 | > 50 | > 50 | > 50 | > 50 | > 50 | > 50 | > 50
CCC(C#N)N(Cc1cccc(CN(C(C)=O)C(C#N)CC)c1)C(C)=O (centres undefined) | > 100 | > 100 | > 100 | > 100 | > 100 | > 100 | > 100 | > 100 | > 100 | > 100 | > 100
C=C1C(=O)OC2C(C)C3C=CC(=O)[C@@]3(C)C(OC(=O)/C(C)=C/C)C1[C@@H]2OC(C)=O (some centres undefined) | 0.782 | > 28.7 | 1.27 | 2.48 | 2.36 | 2.78 | 0.738 | 1.18 | 1.96 | 4.42 | 3.32
